Read-outs that look alike come from different tables or passages of the source.
Assays:
S. aureus (ATCC 33592) = test: MIC against S. aureus strain; format: cell-based; conditions: Staphylococcus aureus, ATCC33592
Procedure: (§1) Stock solutions of compounds are prepared with a concentration of 10 mg/mL. These solutions are then diluted 1:4 to give a concentration of 2.5 mg/mL. The compounds are then serially diluted 1:2 for 6 iterations. The concentrations made for each compound are 2.5, 1.25, 0.625, 0.3125, 0.156, 0.078, and 0.039 mg/mL. A control sample (no compound) is run along with each compound tested. All dilutions are made in DMSO.
(§2) All wells of a 96 well microtiter plate are filled with 100 μL of BHI (Brain-Heart Infusion) broth. Columns on the plate are labeled 1-12, and rows are labeled A-H. Each column of wells is used to test one series of diluted compounds. Into each well of 100 μL of BHI broth, 1 μL of diluted compound is placed for a 1:100 dilution. This makes the final concentration of each drug series 25, 12.5, 6.25, 3.125, 1.56, 0.78, 0.39, and 0 μg/mL.
(§3) Test Organism: A sterile 15 mL screw cap tube is filled wth 3 mL of BHI broth. Next, 2-3 colonies of test organism are inoculated into the tube. The tube is then incubated at 37° C. in a CO2 (approx. 7%) atmosphere jar. The organisms are allowed to grow to the density of a 0.5 McFarland standard (10^8 cells/mL). The organism is then inoculated into each well of the microtiter plate containing the diluted compounds to be tested for MIC. The inoculum is 1 μL in volume and represents 10^5 to 10^6 cells/mL.
(§4) After inoculation the plates are covered and incubated at 37° C. and approx. 7-10% CO2 atmosphere overnight (about 16 hours). The plates are then observed for growth, the well with the lowest concentration of drug and no observable growth represents the well determining the MIC.

S. aureus (ATCC 25923) = test: MIC against S. aureus strain; format: cell-based; conditions: Staphylococcus aureus, ATCC25923
Procedure: as §1, §2, §3, §4

S. aureus (ATCC 29213) = test: MIC against S. aureus strain; format: cell-based; conditions: Staphylococcus aureus, ATCC29213
Procedure: as §1, §2, §3, §4

S. aureus (ATCC 33591) = test: MIC against S. aureus strain; format: cell-based; conditions: Staphylococcus aureus, ATCC33591
Procedure: as §1, §2, §3, §4

[1] = tested on: methicillin-resistant Staphylococcus aureus (MRSA); test: Determination of MIC values (BHI broth, 96 well microtiter plate); format: cell-based; conditions: BHI broth; for MIC: Staphylococcus aureus, MRSA, read-out: MIC MRSA
Method in brief: (§5)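 Broth microdilution in Brain-Heart Infusion with twofold dilution series from 25 µg/mL final and a no-compound control. Overnight incubation at 37° C in a CO2 atmosphere; visual growth endpoint gives the MIC.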

[2] = tested on: vancomycin-resistant Enterococcus spp. (VRE); test: as above; format: cell-based; conditions: BHI broth; for MIC: Enterococcus, VRE, read-out: MIC VREF
Method in brief: as §5

Streptococcus pneumoniae = test: as above; format: cell-based; conditions: BHI broth; for MIC: Streptococcus pneumoniae, read-out: MIC S. pneu
Method in brief: as §5

[3] = Acute in vivo toxicity in mice, intraperitoneal injection; conditions: in 10% w/v hydroxypropyl-β-cyclodextrin in 0.9% w/v saline, 5 mice
Procedure: Solutions of compounds in 10% w/v hydroxypropyl-β-cyclodextrin in 0.9% w/v saline were prepared. Doses of 40 mg/kg or 120 mg/kg of each compound were administered to mice (5 mice/compound/dose) via intraperitoneal injections. The mice […] for seven days.

[4] = 16 h, 37° C., overnight (about 16 hours)
[5] = 37° C., overnight (about 16 hours)

Structure (SMILES)	Mice Surviving on Day 7 ([3]; 40 mg/kg intraperitoneal)	Mice Surviving on Day 7 ([3]; 120 mg/kg intraperitoneal)	MIC ([1]; 16 h, 37° C., about 16 hours)	MIC ([2]; 16 h, 37° C., about 16 hours)	MIC (Streptococcus pneumoniae; 37° C., about 16 hours)	also measured
NCC(O)CNC(=O)c1cc(-c2c[nH]c3ccc(Br)cc23)nc2cc(Cl)cc(Cl)c12 (stereo not shown) [Entry 11]						MIC (S. aureus (ATCC 33592)): < 7 µg/mL; MIC (S. aureus (ATCC 25923)): < 7 µg/mL; MIC (S. aureus (ATCC 29213)): < 7 µg/mL; MIC (S. aureus (ATCC 33591)): < 7 µg/mL
NCCNC(=O)c1cc(-c2c[nH]c3ccc(Br)cc23)nc2ccc(I)cc12 [Example 107]	100%	0%				MIC [1, 4]: < 7 µg/mL; MIC [2, 4]: < 7 µg/mL; MIC (Streptococcus pneumoniae; [5]): < 7 µg/mL
Fc1ccc2c(-c3ccc4cc(Cl)ccc4n3)c[nH]c2c1 [Example 193]	100%	100%				MIC [1, 4]: < 7 µg/mL; MIC [2, 4]: < 7 µg/mL; MIC (Streptococcus pneumoniae; [5]): < 7 µg/mL
COC(=O)c1cc(-c2c[nH]c3ccc(Br)cc23)nc2cc(F)ccc12 [Example 307]	100%	100%				MIC ([1]; overnight 37° C.): < 7 µg/mL; MIC ([2]; VREF, overnight 37° C.): < 7 µg/mL; MIC (Streptococcus pneumoniae; S. pneu, overnight 37° C.): < 7 µg/mL
NCCNC(=O)c1cc(-c2c[nH]c3ccc(Br)cc23)nc2cc(Cl)ccc12 [Example 316]	80%	0%				MIC ([1]; overnight 37° C.): < 7 µg/mL; MIC ([2]; VREF, overnight 37° C.): < 7 µg/mL; MIC (Streptococcus pneumoniae; S. pneu, overnight 37° C.): < 7 µg/mL
Clc1ccc2[nH]cc(-c3cc(Cl)c4ccccc4n3)c2c1 [Example 342]	100%	100%				MIC ([1]; overnight 37° C.): < 7 µg/mL; MIC ([2]; VREF, overnight 37° C.): > 25 µg/mL; MIC (Streptococcus pneumoniae; S. pneu, overnight 37° C.): < 7 µg/mL
Cn1cc(-c2cc(C(=O)NCCN)c3cc(I)ccc3n2)c2cc(Br)ccc21 [Example 359]	100%	100%				MIC ([1]; overnight 37° C.): < 7 µg/mL; MIC ([2]; VREF, overnight 37° C.): < 7 µg/mL; MIC (Streptococcus pneumoniae; S. pneu, overnight 37° C.): < 7 µg/mL
Cn1cc(-c2cc(C(=O)NCCN)c3cc(C#CCN4CCCCC4)ccc3n2)c2cc(Br)ccc21 [Example 379]	40%	0%				
NCCNC(=O)c1cc(-c2c[nH]c3ccc(Br)cc23)nc2cc(Cl)c(C#CCN3CCCCC3)cc12 [Example 380]	100%	0%				MIC ([1]; overnight 37° C.): < 7 µg/mL; MIC ([2]; VREF, overnight 37° C.): < 7 µg/mL; MIC (Streptococcus pneumoniae; S. pneu, overnight 37° C.): < 7 µg/mL
COc1ccc2nc(-c3c[nH]c4ccc(Cl)cc34)ccc2c1 [Example 417]	100%	100%				
NCCNC(=O)c1cc(-c2c[nH]c3ccc(Br)cc23)nc2ccc(C#CCN3CCCCC3)cc12 [Example 418]	100%	0%	< 7 µg/mL	< 7 µg/mL	< 7 µg/mL	
Cn1cc(-c2cc(C(=O)NCCN)c3cc(C#CCN4CCCCC4)c(Cl)cc3n2)c2cc(Br)ccc21 [Example 419]	40%	0%	< 7 µg/mL	< 7 µg/mL	< 7 µg/mL	
Cn1cc(-c2cc(C(=O)NCCN)c3ccc(Cl)cc3n2)c2cc(Br)ccc21 [Example 420]	100%	100%	< 7 µg/mL	< 7 µg/mL	< 7 µg/mL	
OCc1cc(-c2c[nH]c3ccc(Br)cc23)nc2cc(F)ccc12 [Example 447]	100%	80%				MIC MRSA ([1]; 37° C., about 16 hours): < 7 µg/mL; MIC VREF ([2]; 37° C., about 16 hours): <7 µg/mL; MIC S. pneu (Streptococcus pneumoniae; 37° C., about 16 hours): < 7 µg/mL
Fc1ccc2c(-c3cc(Cl)c4ccc(Cl)cc4n3)c[nH]c2c1 [Example 461]	100%	100%	< 7 µg/mL	< 7 µg/mL	< 7 µg/mL	
Cc1ccc2[nH]cc(-c3cc(Cl)c4ccc(Cl)cc4n3)c2c1 [Example 474]	100%	100%	< 7 µg/mL	< 25 µg/mL	< 7 µg/mL	
NCCNC(=O)c1cc(-c2c[nH]c3ccc(Br)cc23)nc2ccc(C#CCNCCc3ccccc3)cc12 [Example 527]			< 7 µg/mL	< 7 µg/mL	< 7 µg/mL	

Source: patent US6376670B1, “Quinoline-indole antimicrobial agents, uses and compositions related thereto” (Sepracor Inc., priority 1997, dated 2002)
